Measured values as given in PubChem BioAssay (NCI).
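Tested at 5 concentrations; 48 h exposure; 96-well plates; endpoints linearly interpolated, else capped at highest concentration. Here, GI50 denotes the concentration required for 50% inhibition of growth. Definition used: TGI = concentration required for complete inhibition of growth.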

Legend:
Assay in all cases: NCI anticancer screen, dose series, 48 h
MOLT-4 leukemia = test system: MOLT-4 leukemia
NCI-H226 lung = test system: NCI-H226 lung
NCI-H23 lung = test system: NCI-H23 lung
NCI-H460 lung = test system: NCI-H460 lung
NCI-H522 lung = test system: NCI-H522 lung
OVCAR-3 ovarian = test system: OVCAR-3 ovarian
OVCAR-4 ovarian = test system: OVCAR-4 ovarian
OVCAR-5 ovarian = test system: OVCAR-5 ovarian
OVCAR-8 ovarian = test system: OVCAR-8 ovarian
PC-3 prostate = test system: PC-3 prostate
RPMI-8226 leukemia = test system: RPMI-8226 leukemia
RXF 393 renal = test system: RXF 393 renal
SF-295 CNS = test system: SF-295 CNS
SF-539 CNS = test system: SF-539 CNS
SK-MEL-2 melanoma = test system: SK-MEL-2 melanoma
SK-MEL-28 melanoma = test system: SK-MEL-28 melanoma
SK-MEL-5 melanoma = test system: SK-MEL-5 melanoma
SK-OV-3 ovarian = test system: SK-OV-3 ovarian
SN12C renal = test system: SN12C renal
SNB-19 CNS = test system: SNB-19 CNS
SNB-75 CNS = test system: SNB-75 CNS
SR leukemia = test system: SR leukemia
SW-620 colon = test system: SW-620 colon
T-47D breast = test system: T-47D breast
TK-10 renal = test system: TK-10 renal
U251 CNS = test system: U251 CNS
UACC-257 melanoma = test system: UACC-257 melanoma
UACC-62 melanoma = test system: UACC-62 melanoma
UO-31 renal = test system: UO-31 renal

O=c1oc2ccc(-c3ccc(F)cc3F)cc2c(=O)n1-c1ccc(F)cc1
TGI (MOLT-4 leukemia): 8.27 µM | GI50 (NCI-H226 lung): 1.45 µM | TGI (NCI-H226 lung): 6.5 µM | GI50 (NCI-H23 lung): 2.08 µM | TGI (NCI-H23 lung): 6.78 µM | GI50 (NCI-H460 lung): 2.3 µM | TGI (NCI-H460 lung): 11.9 µM | GI50 (NCI-H522 lung): 1.23 µM | TGI (NCI-H522 lung): 6.15 µM | GI50 (OVCAR-3 ovarian): 2.49 µM | TGI (OVCAR-3 ovarian): 14 µM | GI50 (OVCAR-4 ovarian): 2.08 µM | TGI (OVCAR-4 ovarian): 54.1 µM | GI50 (OVCAR-5 ovarian): 3.2 µM | TGI (OVCAR-5 ovarian): > 100 µM | GI50 (OVCAR-8 ovarian): 3.52 µM | TGI (OVCAR-8 ovarian): > 100 µM | GI50 (PC-3 prostate): 2.8 µM | TGI (PC-3 prostate): 11.7 µM | GI50 (RPMI-8226 leukemia): 1.33 µM | TGI (RPMI-8226 leukemia): 7.13 µM | GI50 (RXF 393 renal): 1.55 µM | TGI (RXF 393 renal): 5.63 µM | GI50 (SF-295 CNS): 3.46 µM | TGI (SF-295 CNS): 12.8 µM | GI50 (SF-539 CNS): 2.88 µM | TGI (SF-539 CNS): 12.1 µM | GI50 (SK-MEL-2 melanoma): 1.79 µM | TGI (SK-MEL-2 melanoma): 4.6 µM | GI50 (SK-MEL-28 melanoma): 3.23 µM | TGI (SK-MEL-28 melanoma): > 100 µM | GI50 (SK-MEL-5 melanoma): 0.799 µM | TGI (SK-MEL-5 melanoma): 2.3 µM | GI50 (SK-OV-3 ovarian): 2.15 µM | TGI (SK-OV-3 ovarian): 6.37 µM | GI50 (SN12C renal): 2.12 µM | TGI (SN12C renal): 8.04 µM | GI50 (SNB-19 CNS): 3.58 µM | TGI (SNB-19 CNS): > 100 µM | GI50 (SNB-75 CNS): 1.38 µM | TGI (SNB-75 CNS): 5.53 µM | GI50 (SR leukemia): 2.45 µM | TGI (SR leukemia): > 100 µM | GI50 (SW-620 colon): 3.23 µM | TGI (SW-620 colon): > 100 µM | GI50 (T-47D breast): 0.502 µM | TGI (T-47D breast): 4.32 µM | GI50 (TK-10 renal): 2.78 µM | TGI (TK-10 renal): > 100 µM | GI50 (U251 CNS): 2.82 µM | TGI (U251 CNS): 17.3 µM | GI50 (UACC-257 melanoma): 1.64 µM | TGI (UACC-257 melanoma): 6.78 µM | GI50 (UACC-62 melanoma): 1.37 µM | TGI (UACC-62 melanoma): 4.65 µM | GI50 (UO-31 renal): 2.3 µM | TGI (UO-31 renal): 9.44 µM
